Measured values published in patent US8933230B2, “Phosphorus-containing group-substituted quinoline, its preparation process, medical composition containing the compounds and application” (priority 2011, dated 2015).

Assays:
Experiment in all cases: KinomeScan kinase panel
Assay type in all cases: binding
[1] = target: T1, ACVR2A (Homo sapiens, UniProt P27037)
T1 construct: purchased DiscoveRx Corporation (KinomeScan)
In short: (§1)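 At 1000 nM, inhibition by the compound was measured kinase by kinase in the KinomeScan 442-member panel.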

[2] = target: T2, ROCK1 (Homo sapiens, UniProt Q13464)
T2 construct: purchased DiscoveRx Corporation
In short: as §1

[3] = target: T3, CDKL5 (Homo sapiens, UniProt O76039)
T3 construct: purchased DiscoveRx Corporation (KinomeScan)
In short: as §1

[4] = target: T4, MYLK (Homo sapiens, UniProt Q15746)
T4 construct: purchased DiscoveRx Corporation (KinomeScan)
In short: as §1

[5] = target: T5, KIT(V559D, V654A) (Homo sapiens, UniProt P10721, V559D/V654A)
T5 construct: purchased DiscoveRx Corporation (KinomeScan)
In short: as §1

[6] = target: T6, PIK3CA (H1047L) (Homo sapiens, UniProt P42336, H1047L)
T6 construct: purchased DiscoveRx Corporation (KinomeScan)
In short: as §1

[7] = target: T7, TNIK (Homo sapiens, UniProt Q9UKE5)
T7 construct: purchased DiscoveRx Corporation (KinomeScan)
In short: as §1

[8] = target: T8, ABL1-nonphosphorylated (Homo sapiens, UniProt P00519)
T8 construct: purchased DiscoveRx Corporation (KinomeScan)
In short: as §1

[9] = target: T9, AKT3 (Homo sapiens, UniProt Q9Y243)
T9 construct: purchased DiscoveRx Corporation (KinomeScan)
In short: as §1

[10] = target: T10, EPHB2 (Homo sapiens, UniProt P29323)
T10 construct: purchased DiscoveRx Corporation (KinomeScan)
In short: as §1

[11] = target: T11, CLK1 (Homo sapiens, UniProt P49759)
T11 construct: purchased DiscoveRx Corporation (KinomeScan)
In short: as §1

[12] = target: T12, MLCK (Homo sapiens, UniProt Q32MK0)
T12 construct: purchased DiscoveRx Corporation (KinomeScan)
In short: as §1

[13] = target: T13, MEK6 (Homo sapiens, UniProt P52564)
T13 construct: purchased DiscoveRx Corporation (KinomeScan)
In short: as §1

[14] = target: T14, CHEK2 (Homo sapiens, UniProt O96017)
T14 construct: purchased DiscoveRx Corporation (KinomeScan)
In short: as §1

[15] = target: T15, TAOK2 (Homo sapiens, UniProt Q9UL54)
T15 construct: purchased DiscoveRx Corporation (KinomeScan)
In short: as §1

[16] = target: T16, PIK3CA(E545K) (Homo sapiens, UniProt P42336, E545K)
T16 construct: purchased DiscoveRx Corporation (KinomeScan)
In short: as §1

[17] = target: T17, TGFBR2 (Homo sapiens, UniProt P37173)
T17 construct: purchased DiscoveRx Corporation (KinomeScan)
T17 sequence (P37173 23-567): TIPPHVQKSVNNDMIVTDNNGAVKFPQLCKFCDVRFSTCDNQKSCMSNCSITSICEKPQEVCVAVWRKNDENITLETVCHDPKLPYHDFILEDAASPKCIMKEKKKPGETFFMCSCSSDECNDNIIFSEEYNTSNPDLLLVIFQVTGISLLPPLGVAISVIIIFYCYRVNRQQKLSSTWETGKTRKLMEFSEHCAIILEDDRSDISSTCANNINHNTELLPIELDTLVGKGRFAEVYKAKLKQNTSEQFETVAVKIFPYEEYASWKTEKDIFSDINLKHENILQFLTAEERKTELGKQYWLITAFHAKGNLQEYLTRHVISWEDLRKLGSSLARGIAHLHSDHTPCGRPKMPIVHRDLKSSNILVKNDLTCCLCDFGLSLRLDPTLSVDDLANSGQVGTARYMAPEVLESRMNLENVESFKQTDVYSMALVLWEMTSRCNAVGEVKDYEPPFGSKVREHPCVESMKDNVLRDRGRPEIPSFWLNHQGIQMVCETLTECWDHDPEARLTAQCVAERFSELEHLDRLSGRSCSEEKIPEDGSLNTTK
In short: as §1

[18] = target: T18, DAPK1 (Homo sapiens, UniProt P53355)
T18 construct: purchased DiscoveRx Corporation (KinomeScan)
In short: as §1

[19] = target: T19, EGFR(L858R) (Homo sapiens, UniProt P00533, L858R)
T19 construct: purchased DiscoveRx Corporation (KinomeScan)
In short: as §1

[20] = target: T20, TLK1 (Homo sapiens, UniProt Q9UKI8)
T20 construct: purchased DiscoveRx Corporation (KinomeScan)
T20 sequence (Q9UKI8 whole entry): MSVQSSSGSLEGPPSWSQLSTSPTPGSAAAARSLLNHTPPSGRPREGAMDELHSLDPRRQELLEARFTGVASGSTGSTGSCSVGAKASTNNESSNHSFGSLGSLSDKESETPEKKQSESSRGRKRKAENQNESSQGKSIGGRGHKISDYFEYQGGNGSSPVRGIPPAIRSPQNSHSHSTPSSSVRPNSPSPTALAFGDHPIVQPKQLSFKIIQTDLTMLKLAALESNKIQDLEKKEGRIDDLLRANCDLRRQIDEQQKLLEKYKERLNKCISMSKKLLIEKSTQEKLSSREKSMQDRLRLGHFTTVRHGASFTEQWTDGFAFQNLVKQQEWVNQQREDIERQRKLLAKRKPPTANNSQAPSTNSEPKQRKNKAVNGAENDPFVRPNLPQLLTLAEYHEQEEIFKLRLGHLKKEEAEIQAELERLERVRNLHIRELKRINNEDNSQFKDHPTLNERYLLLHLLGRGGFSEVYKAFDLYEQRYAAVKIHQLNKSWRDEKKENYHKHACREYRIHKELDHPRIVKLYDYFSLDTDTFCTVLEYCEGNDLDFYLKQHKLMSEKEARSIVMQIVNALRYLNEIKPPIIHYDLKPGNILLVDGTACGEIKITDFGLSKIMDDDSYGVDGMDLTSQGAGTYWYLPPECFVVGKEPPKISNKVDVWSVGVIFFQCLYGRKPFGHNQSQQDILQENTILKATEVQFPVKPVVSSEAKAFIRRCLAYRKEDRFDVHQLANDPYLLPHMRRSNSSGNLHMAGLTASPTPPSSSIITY
In short: as §1

[21] = target: T21, INSRR (Homo sapiens, UniProt P14616)
T21 construct: purchased DiscoveRx Corporation (KinomeScan)
In short: as §1

[22] = target: T22, PIP5K1C (Homo sapiens, UniProt O60331)
T22 construct: purchased DiscoveRx Corporation (KinomeScan)
T22 sequence (O60331 whole entry): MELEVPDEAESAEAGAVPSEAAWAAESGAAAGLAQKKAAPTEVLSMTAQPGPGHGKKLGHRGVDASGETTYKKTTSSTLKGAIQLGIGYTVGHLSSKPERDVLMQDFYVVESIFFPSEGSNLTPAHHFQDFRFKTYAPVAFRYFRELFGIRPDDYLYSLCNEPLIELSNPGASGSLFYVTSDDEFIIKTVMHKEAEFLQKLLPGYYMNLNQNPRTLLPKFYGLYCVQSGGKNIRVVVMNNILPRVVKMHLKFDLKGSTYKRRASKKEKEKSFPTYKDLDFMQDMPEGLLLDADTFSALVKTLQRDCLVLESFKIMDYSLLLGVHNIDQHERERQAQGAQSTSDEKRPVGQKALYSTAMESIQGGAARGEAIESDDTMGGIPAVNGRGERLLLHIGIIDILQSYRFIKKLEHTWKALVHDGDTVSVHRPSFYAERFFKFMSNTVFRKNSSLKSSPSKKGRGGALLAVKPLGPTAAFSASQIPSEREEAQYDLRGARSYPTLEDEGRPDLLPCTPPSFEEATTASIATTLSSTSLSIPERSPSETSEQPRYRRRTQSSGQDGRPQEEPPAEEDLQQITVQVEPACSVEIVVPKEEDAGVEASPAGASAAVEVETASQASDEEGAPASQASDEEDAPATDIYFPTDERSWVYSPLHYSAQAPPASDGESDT
In short: as §1

[23] = target: T23, TSSK1B (Homo sapiens, UniProt Q9BXA7)
T23 construct: purchased DiscoveRx Corporation (KinomeScan)
T23 sequence (Q9BXA7 whole entry): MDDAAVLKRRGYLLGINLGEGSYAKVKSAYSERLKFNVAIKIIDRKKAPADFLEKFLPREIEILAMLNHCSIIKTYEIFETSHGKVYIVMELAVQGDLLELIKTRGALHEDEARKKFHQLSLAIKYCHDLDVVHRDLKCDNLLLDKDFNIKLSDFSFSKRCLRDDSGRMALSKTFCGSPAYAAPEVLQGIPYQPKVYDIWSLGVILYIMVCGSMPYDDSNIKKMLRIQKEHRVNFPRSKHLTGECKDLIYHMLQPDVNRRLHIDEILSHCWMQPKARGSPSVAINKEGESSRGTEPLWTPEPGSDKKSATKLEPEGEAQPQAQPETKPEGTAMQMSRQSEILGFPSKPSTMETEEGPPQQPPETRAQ
In short: as §1

[24] = target: T24, PRKCD (Homo sapiens, UniProt Q05655)
T24 construct: purchased DiscoveRx Corporation (KinomeScan)
In short: as §1

[25] = target: T25, CAMK2B (Homo sapiens, UniProt Q13554)
T25 construct: purchased DiscoveRx Corporation (KinomeScan)
In short: as §1

[26] = target: T26, PRP4 (Homo sapiens, UniProt Q13523)
T26 construct: purchased DiscoveRx Corporation
In short: as §1

[27] = target: T27, CAMK2D (Homo sapiens, UniProt Q13557)
T27 construct: purchased DiscoveRx Corporation (KinomeScan)
In short: as §1

[28] = target: T28, NDR2 (Homo sapiens, UniProt Q9Y2H1)
T28 construct: purchased DiscoveRx Corporation (KinomeScan)
In short: as §1

[29] = target: T29, ABL1(E255K)-phosphorylated (Homo sapiens, UniProt P00519, E255K)
T29 construct: purchased DiscoveRx Corporation (KinomeScan)
In short: as §1

[30] = target: T30, BRAF(V600E) (Homo sapiens, UniProt P15056, V600E)
T30 construct: purchased DiscoveRx Corporation (KinomeScan)
T30 sequence (P15056 whole entry V600E): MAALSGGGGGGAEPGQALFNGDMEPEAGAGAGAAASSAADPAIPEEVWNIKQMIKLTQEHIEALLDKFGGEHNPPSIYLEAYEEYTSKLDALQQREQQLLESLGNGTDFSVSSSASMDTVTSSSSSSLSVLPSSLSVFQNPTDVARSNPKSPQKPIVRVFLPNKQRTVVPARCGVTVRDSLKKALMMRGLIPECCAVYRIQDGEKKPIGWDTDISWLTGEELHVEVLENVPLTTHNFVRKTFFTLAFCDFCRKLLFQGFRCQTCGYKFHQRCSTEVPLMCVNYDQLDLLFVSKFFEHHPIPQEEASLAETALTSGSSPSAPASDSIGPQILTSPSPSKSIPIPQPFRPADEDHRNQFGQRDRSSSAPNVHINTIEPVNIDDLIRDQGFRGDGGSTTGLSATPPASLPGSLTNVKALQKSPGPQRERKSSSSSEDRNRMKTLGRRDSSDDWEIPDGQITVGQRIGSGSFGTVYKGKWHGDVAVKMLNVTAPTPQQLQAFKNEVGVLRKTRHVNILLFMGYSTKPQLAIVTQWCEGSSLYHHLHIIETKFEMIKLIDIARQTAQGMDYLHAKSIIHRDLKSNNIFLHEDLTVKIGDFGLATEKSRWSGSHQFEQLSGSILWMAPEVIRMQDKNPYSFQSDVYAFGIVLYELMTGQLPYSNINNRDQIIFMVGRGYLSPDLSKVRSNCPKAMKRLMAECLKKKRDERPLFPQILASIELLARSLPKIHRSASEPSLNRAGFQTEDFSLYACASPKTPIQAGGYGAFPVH
In short: as §1

[31] = target: T31, CSNK1A1L (Homo sapiens, UniProt Q8N752)
T31 construct: purchased DiscoveRx Corporation (KinomeScan)
In short: as §1

[32] = target: T32, HIPK2 (Homo sapiens, UniProt Q9H2X6)
T32 construct: purchased DiscoveRx Corporation (KinomeScan)
In short: as §1

[33] = tested on: TRPM6
In short: as §1

[34] = target: T33, CSNK2A2 (Homo sapiens, UniProt P19784)
T33 construct: purchased DiscoveRx Corporation (KinomeScan)
In short: as §1

[35] = target: T34, ANKK1 (Homo sapiens, UniProt Q8NFD2)
T34 construct: purchased DiscoveRx Corporation (KinomeScan)
T34 sequence (Q8NFD2 whole entry): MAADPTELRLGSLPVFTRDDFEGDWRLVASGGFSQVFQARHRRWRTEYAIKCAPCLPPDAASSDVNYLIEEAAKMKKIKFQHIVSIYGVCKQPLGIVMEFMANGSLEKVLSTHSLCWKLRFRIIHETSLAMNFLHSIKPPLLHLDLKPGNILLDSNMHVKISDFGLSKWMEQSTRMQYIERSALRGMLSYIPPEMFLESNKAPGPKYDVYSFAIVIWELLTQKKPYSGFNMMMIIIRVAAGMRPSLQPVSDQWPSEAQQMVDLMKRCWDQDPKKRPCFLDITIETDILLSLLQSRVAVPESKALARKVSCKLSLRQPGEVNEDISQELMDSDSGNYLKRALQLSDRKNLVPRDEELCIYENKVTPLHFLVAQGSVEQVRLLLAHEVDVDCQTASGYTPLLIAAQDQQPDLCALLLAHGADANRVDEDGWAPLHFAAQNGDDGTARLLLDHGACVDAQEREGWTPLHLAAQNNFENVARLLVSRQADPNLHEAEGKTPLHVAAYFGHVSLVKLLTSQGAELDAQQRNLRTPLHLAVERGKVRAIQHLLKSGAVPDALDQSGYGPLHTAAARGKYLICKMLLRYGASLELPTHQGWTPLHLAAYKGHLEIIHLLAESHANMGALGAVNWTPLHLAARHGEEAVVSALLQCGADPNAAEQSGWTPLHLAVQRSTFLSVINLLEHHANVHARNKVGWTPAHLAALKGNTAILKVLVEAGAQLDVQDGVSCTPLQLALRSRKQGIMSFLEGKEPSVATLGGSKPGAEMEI
In short: as §1

[36] = target: T35, PKMYT1 (Homo sapiens, UniProt Q99640)
T35 construct: purchased DiscoveRx Corporation (KinomeScan)
T35 sequence (Q99640 whole entry): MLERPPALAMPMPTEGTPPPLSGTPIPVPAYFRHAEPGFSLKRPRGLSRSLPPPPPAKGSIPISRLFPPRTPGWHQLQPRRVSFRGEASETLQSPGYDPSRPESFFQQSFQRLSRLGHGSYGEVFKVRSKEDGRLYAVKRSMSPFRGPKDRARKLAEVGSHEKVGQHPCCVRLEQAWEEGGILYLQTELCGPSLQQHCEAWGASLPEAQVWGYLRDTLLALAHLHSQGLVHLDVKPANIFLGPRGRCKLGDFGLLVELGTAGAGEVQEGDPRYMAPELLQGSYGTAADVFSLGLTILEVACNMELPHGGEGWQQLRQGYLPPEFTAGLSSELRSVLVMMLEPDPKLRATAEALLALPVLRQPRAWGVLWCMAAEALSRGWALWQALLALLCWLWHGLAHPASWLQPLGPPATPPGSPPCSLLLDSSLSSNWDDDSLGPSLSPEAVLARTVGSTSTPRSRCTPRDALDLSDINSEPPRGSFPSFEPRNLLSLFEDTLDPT
In short: as §1

T1 sequence (P27037 20-513): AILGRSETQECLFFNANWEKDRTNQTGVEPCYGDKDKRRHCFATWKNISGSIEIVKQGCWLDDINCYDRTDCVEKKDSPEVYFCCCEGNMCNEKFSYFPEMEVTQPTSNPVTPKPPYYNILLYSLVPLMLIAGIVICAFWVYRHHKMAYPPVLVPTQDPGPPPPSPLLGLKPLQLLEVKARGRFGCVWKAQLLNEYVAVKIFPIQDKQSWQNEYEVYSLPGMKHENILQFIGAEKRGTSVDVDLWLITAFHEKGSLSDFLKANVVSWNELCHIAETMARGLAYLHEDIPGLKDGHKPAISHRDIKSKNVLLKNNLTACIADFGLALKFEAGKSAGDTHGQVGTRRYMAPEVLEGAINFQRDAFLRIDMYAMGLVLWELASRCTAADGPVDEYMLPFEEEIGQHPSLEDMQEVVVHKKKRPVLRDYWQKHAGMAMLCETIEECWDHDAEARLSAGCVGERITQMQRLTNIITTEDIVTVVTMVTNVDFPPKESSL

Q: For `CCOP(=O)(CN1CCC(COc2cc3nccc(Oc4ccc(NC(=O)C5(C(=O)Nc6ccc(F)cc6)CC5)cc4F)c3cc2OC)CC1)OCC` [Example 10, N1-[4-[[7-[[1-(diethoxyphosphorylmethyl)-4-piperidinyl]methoxyl]-6-methoxyl-4-quinolyl]oxyl]-3-fluorophenyl]-N1′-(4-fluorophenyl)cyclopropane-1,1-dicarboxamide], which “% Ctrl@1000 nM” value [1] is on record?
A: 100 % Ctrl

Q: What about the “% Ctrl@1000 nM” value [2] of the same molecule?
A: 100 % Ctrl

Q: And the “% Ctrl@1000 nM” value [3]?
A: 100 % Ctrl

Q: What about the “% Ctrl@1000 nM” value [4] of the same molecule?
A: 100 % Ctrl

Q: And the “% Ctrl@1000 nM” value [5]?
A: 4.1 % Ctrl

Q: And the “% Ctrl@1000 nM” value [6]?
A: 100 % Ctrl

Q: What about the “% Ctrl@1000 nM” value [7] of the same molecule?
A: 70 % Ctrl

Q: What about the “% Ctrl@1000 nM” value [8] of the same molecule?
A: 1.8 % Ctrl

Q: And the “% Ctrl@1000 nM” value [9]?
A: 100 % Ctrl

Q: And the “% Ctrl@1000 nM” value [10]?
A: 2.8 % Ctrl

Q: And the “% Ctrl@1000 nM” value [11]?
A: 89 % Ctrl

Q: And the “% Ctrl@1000 nM” value [12]?
A: 100 % Ctrl

Q: And the “% Ctrl@1000 nM” value [13]?
A: 87 % Ctrl

Q: What about the “% Ctrl@1000 nM” value [14] of the same molecule?
A: 35 % Ctrl

Q: And the “% Ctrl@1000 nM” value [15]?
A: 70 % Ctrl

Q: What about the “% Ctrl@1000 nM” value [16] of the same molecule?
A: 100 % Ctrl

Q: And the “% Ctrl@1000 nM” value [17]?
A: 100 % Ctrl

Q: What about the “% Ctrl@1000 nM” value [18] of the same molecule?
A: 100 % Ctrl

Q: And the “% Ctrl@1000 nM” value [19]?
A: 59 % Ctrl

Q: And the “% Ctrl@1000 nM” value [20]?
A: 88 % Ctrl

Q: And the “% Ctrl@1000 nM” value [21]?
A: 65 % Ctrl

Q: What about the “% Ctrl@1000 nM” value [22] of the same molecule?
A: 100 % Ctrl

Q: What about the “% Ctrl@1000 nM” value [23] of the same molecule?
A: 100 % Ctrl

Q: And the “% Ctrl@1000 nM” value [24]?
A: 100 % Ctrl

Q: And the “% Ctrl@1000 nM” value [25]?
A: 100 % Ctrl

Q: What about the “% Ctrl@1000 nM” value [26] of the same molecule?
A: 76 % Ctrl

Q: And the “% Ctrl@1000 nM” value [27]?
A: 94 % Ctrl

Q: What about the “% Ctrl@1000 nM” value [28] of the same molecule?
A: 82 % Ctrl

Q: What about the “% Ctrl@1000 nM” value [29] of the same molecule?
A: 63 % Ctrl

Q: And the “% Ctrl@1000 nM” value [30]?
A: 100 % Ctrl

Q: And the “% Ctrl@1000 nM” value [31]?
A: 100 % Ctrl

Q: And the “% Ctrl@1000 nM” value [32]?
A: 100 % Ctrl

Q: What about the “% Ctrl@1000 nM” value [33] of the same molecule?
A: 86 % Ctrl

Q: What about the “% Ctrl@1000 nM” value [34] of the same molecule?
A: 100 % Ctrl

Q: And the “% Ctrl@1000 nM” value [35]?
A: 100 % Ctrl

Q: And the “% Ctrl@1000 nM” value [36]?
A: 100 % Ctrl
